Results: patent US6875760B2 (Novo Nordisk A/S, priority 1999, dated 2005)

What follows are molecules tested against T1, human glucagon receptor (Homo sapiens, UniProt P47871) (assay: Glucagon Binding Assay (III)). Conditions: BHK cell membranes, WGA SPA beads, 125I-glucagon; read-out: Glu Bd Assay (III) IC50.
T1 construct: expressed in transfected cells; host or cells: BHK (baby hamster kidney) cells
Summary of the method: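 Membranes from BHK cells transfected with the human receptor, prepared at 4 °C, were used in a WGA-bead scintillation proximity binding format. Plates were shaken for 4 hours, left to settle 8–48 hours and then counted. Non-specific binding was defined with 500 nM glucagon.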

T1 sequence (P47871 26-477): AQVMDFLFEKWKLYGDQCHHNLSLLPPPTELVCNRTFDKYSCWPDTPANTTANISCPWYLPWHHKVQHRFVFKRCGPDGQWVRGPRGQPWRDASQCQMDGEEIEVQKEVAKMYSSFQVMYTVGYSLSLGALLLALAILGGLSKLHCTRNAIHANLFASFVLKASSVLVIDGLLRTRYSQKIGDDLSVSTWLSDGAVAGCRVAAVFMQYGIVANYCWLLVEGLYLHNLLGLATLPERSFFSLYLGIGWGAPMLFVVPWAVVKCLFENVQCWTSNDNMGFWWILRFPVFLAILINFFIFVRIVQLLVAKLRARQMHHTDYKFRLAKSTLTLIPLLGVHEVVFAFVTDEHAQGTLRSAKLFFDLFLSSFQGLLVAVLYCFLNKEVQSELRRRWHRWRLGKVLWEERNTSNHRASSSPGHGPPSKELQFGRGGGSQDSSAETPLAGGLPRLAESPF

Structure (SMILES)	IC50
CN(C)C(=O)c1cccc(NC(=O)N(Cc2ccc(C(=O)Nc3nn[nH]n3)cc2)c2ccc(C(C)(C)C)cc2)c1 [Example 461, N,N-Dimethyl-3-{3-(4-tert-butylphenyl)-3-[4-(2H-tetrazol-5-ylcarbamoyl)benzyl]ureido}benzamide]	764 nM
CC(C)(C)c1ccc(N(Cc2ccc(C(=O)NCCC(=O)O)cc2)C(=O)Oc2cc(Cl)cc(Cl)c2)cc1 [Example 409, 3-(4-{[(4-tert-Butylphenyl)-(3,5-dichlorophenoxycarbonyl)amino]methyl}benzoylamino)propionic acid]	520 nM
O=C(O)CCNC(=O)c1ccc(CN(C(=O)Nc2ccc(OC(F)(F)F)cc2)C2CCC3(CC2)OCCO3)cc1 [Example 89, 3-{4-[1-(1,4-Dioxaspiro[4.5]dec-8-yl)-3-(4-trifluoromethoxyphenyl)ureidomethyl]benzoylamino}propionic acid]	1210 nM
CCOc1ccc(N(Cc2ccc(C(=O)NCCC(=O)O)cc2)C(=O)Nc2ccc(OC(F)(F)F)cc2)cc1 [Example 442, 3-{4-[1-(4-Ethoxyphenyl)-3-(4-trifluoromethoxyphenyl)ureidomethyl]benzoylamino}propionic acid]	4100 nM
CCCCc1ccc(N(Cc2ccc(C(=O)NCCC(=O)O)cc2)C(=O)Nc2ccc(OC(F)(F)F)cc2)c(C)c1 [Example 440, 3-{4-[1-(4-Butyl-2-methylphenyl)-3-(4-trifluoromethoxyphenyl)ureidomethyl]benzoylamino}propionic acid]	509 nM
CS(=O)(=O)Cc1cccc(NC(=O)N(Cc2ccc(C(=O)Nc3nn[nH]n3)cc2)c2ccc(C3CCCCC3)cc2)c1 [Example 369, 4-[1-(4-Cyclohexylphenyl)-3-(3-methylsulfonylmethylphenyl)ureidomethyl]-N-(2H-tetrazol-5-yl)benzamide]	558 nM
O=C(O)CCNC(=O)c1ccc(CN(C(=O)Nc2ccc(OC(F)(F)F)cc2)c2ccc(OC(F)(F)F)cc2)cc1 [Example 438, 3-{4-[1,3-Bis(4-trifluoromethoxyphenyl)ureidomethyl]benzoylamino}propionic acid]	288 nM
O=C(O)CCNC(=O)c1ccc(CN(CC(c2ccccc2)c2ccccc2)C(=O)/C=C/c2c(Cl)cccc2Cl)cc1 [Example 505, 3-(4-{[[3-(2,6-Dichlorophenyl)acryloyl]-(2,2-diphenylethyl)amino]methyl}benzoylamino)propionic acid]	449 nM
CCCC1CCC(N(Cc2ccc(C(=O)NCCC(=O)O)cc2)C(=O)Nc2ccc(OC(F)(F)F)cc2)CC1 (centres unmarked) [Example 75, 3-{4-[1-(4-Propylcyclohexyl)-3-(4-trifluoromethoxyphenyl)ureidomethyl]benzoylamino}propionic acid]	177 nM
CSc1ccc(NC(=O)N(Cc2ccc(C(=O)NCCC(=O)O)cc2)C2CCC(C(C)(C)C)CC2)cc1 (centres unmarked) [Example 30, 3-{4-[1-(4-tert-Butylcyclohexyl)-3-(4-methylsulfanylphenyl)ureidomethyl]benzoyl}aminopropionic acid]	139 nM
CC(C)(C)C1CCC(N(Cc2ccc(C(=O)Nc3nn[nH]n3)cc2)C(=O)c2cc3cc(OC(F)(F)F)ccc3[nH]2)CC1 (centres unmarked) [Example 557, 5-Trifluoromethoxy-1H-indole-2-carboxylic acid (4-tert-butylcyclohexyl)-[4-(2H-tetrazol-5-ylcarbamoyl)benzyl]amide]	266 nM
CS(=O)(=O)c1ccc(C(=O)N(Cc2ccc(C(=O)Nc3nn[nH]n3)cc2)c2ccc(C3CCCCC3)cc2)cc1 [Example 483, 4-{[(4-Cyclohexylphenyl)-(4-methylsulfonylbenzoyl)amino]methyl}-N-(2H-tetrazol-5-yl)benzamide]	1120 nM
O=C(Nc1nn[nH]n1)c1ccc(CN(C(=O)c2ccc(Cc3ccccc3)cc2)c2ccc(N3CCCCC3)cc2)cc1 [Example 519, 4-{[(4-Benzylbenzoyl)-(4-piperidin-1-ylphenyl)amino]methyl}-N-(2H-tetrazol-5-yl)benzamide]	908 nM
CCN(CC)C(=O)C1CCC(N(Cc2ccc(C(=O)NCCC(=O)O)cc2)C(=O)Nc2ccc(OC(F)(F)F)cc2)CC1 (centres unmarked) [Example 382, 3-{4-[1-(4-Diethylcarbamoylcyclohexyl)-3-(4-trifluoromethoxyphenyl)ureidomethyl]benzoylamino}propionic acid]	781 nM
CCCCOC(=O)c1ccc(NC(=O)N(Cc2ccc(C(=O)NCCC(=O)O)cc2)CC(C)c2ccccc2)cc1 (centres unmarked) [Example 49, 4-[3-[4-(2-Carboxyethylcarbamoyl)benzyl]-3-(2-phenylpropyl)ureido]benzoic acid butyl ester]	1320 nM
O=C(O)CCNC(=O)c1ccc(CN(Cc2ccccc2Cl)C(=O)Nc2ccc(OC(F)(F)F)cc2)cc1 [Example 431, 3-{4-[1-(2-Chlorobenzyl)-3-(4-trifluoromethoxyphenyl)ureidomethyl]benzoylamino}propionic acid]	2910 nM
CC(Oc1ccc(OC(F)(F)F)cc1)C(=O)N(Cc1ccc(C(=O)Nc2nn[nH]n2)cc1)CC(c1ccccc1)c1ccccc1 (centres unmarked) [Example 530, 4-({(2,2-Diphenylethyl)-[2-(4-trifluoromethoxyphenoxy)propionyl]amino}methyl)-N-(2H-tetrazol-5-yl)benzamide]	3980 nM

More lines, in order of falling IC50, values ahead:

IC50	Structure (SMILES)
137 nM	CCCC1(CCC)CCC(N(Cc2ccc(C(=O)NCCC(=O)O)cc2)C(=O)Nc2ccc(OC(F)(F)F)cc2)CC1 [Example 88, 3-{4-[1-(4,4-Dipropylcyclohexyl)-3-(4-trifluoromethoxyphenyl)ureidomethyl]benzoylamino}propionic acid]
117 nM	CCCCC(CC)CN(Cc1ccc(C(=O)NCCC(=O)O)cc1)C(=O)Nc1ccc(CC)cc1 (centres unmarked) [Example 42, 3-{4-[1-(2-Ethylhexyl)-3-(4-ethylphenyl)ureidomethyl]benzoylamino}propionic acid]
99 nM	CCOC(=O)c1ccc2nc(NC(=O)N(Cc3ccc(C(=O)Nc4nn[nH]n4)cc3)c3ccc(C4CCCCC4)cc3)sc2c1 [Example 343, 2-{3-(4-Cyclohexylphenyl)-3-[4-(2H-tetrazol-5-ylcarbamoyl)benzyl]ureido}benzothiazole-6-carboxylic acid ethyl ester]
86 nM	CC(C)(C)[C@H]1CC[C@H](N(Cc2ccc(C(=O)NCCC(=O)O)cc2)NC(=O)c2ccc(OC(F)(F)F)cc2)CC1 [Example 429, 3-{4-[N-(trans-4-tert-Butylcyclohexyl)-N′-(4-trifluoromethoxybenzoyl)hydrazinomethyl]benzoylamino}propionic acid]
64 nM	O=C(Nc1nn[nH]n1)c1ccc(CN(C(=O)NCc2cc(F)cc(C(F)(F)F)c2)c2ccc(C3CCCCC3)cc2)cc1 [Example 270, 4-[1-(4-Cyclohexylphenyl)-3-(3-fluoro-5-trifluoromethylbenzyl)ureidomethyl]-N-(2H-tetrazol-5-yl)benzamide]
53 nM	O=C(Nc1nn[nH]n1)c1ccc(CN(C(=O)Nc2cccc(S(=O)(=O)C(F)(F)F)c2)c2ccc(C3CCCCC3)cc2)cc1 [Example 303, 4-[1-(4-Cyclohexylphenyl)-3-(3-trifluoromethylsulfonylphenyl)ureidomethyl]-N-(2H-tetrazol-5-yl)benzamide]
52 nM	CC(C)(C)c1ccc(N(Cc2ccc(C(=O)Nc3nn[nH]n3)cc2)C(=O)Nc2cccc([N+](=O)[O-])c2)cc1 [Example 287, 4-[1-(4-tert-Butylphenyl)-3-(3-nitrophenyl)ureidomethyl]-N-(2H-tetrazol-5-yl)benzamide]
42 nM	CS(=O)(=O)c1cccc(NC(=O)N(Cc2ccc(C(=O)Nc3nn[nH]n3)cc2)c2ccc(C3CCCCC3)cc2)c1 [Example 444, 4-[1-(4-Cyclohexylphenyl)-3-(3-methylsulfonylphenyl)ureidomethyl]-N-(2H-tetrazol-5-yl)benzamide]
35 nM	O=C(Nc1nn[nH]n1)c1ccc(CN(C(=O)Nc2ccc(SC(F)(F)F)cc2)c2ccc(C3CCCCC3)cc2)cc1 [Example 301, 4-[1-(4-Cyclohexylphenyl)-3-(4-trifluoromethylsulfanylphenyl)ureidomethyl]-N-(2H-tetrazol-5-yl)benzamide]
35 nM	CC(C)N1C(=O)c2ccc(NC(=O)N(Cc3ccc(C(=O)Nc4nn[nH]n4)cc3)c3ccc(C(C)(C)C)cc3)cc2C1=O [Example 628, 4-[1-(4-tert-Butyl-phenyl)-3-(N′-isopropylphthalimid-4-yl)ureidomethyl]-N-(2H-tetrazol-5-yl)benzamide]
21 nM	O=C(Nc1nn[nH]n1)c1ccc(CN(C(=O)Nc2cc(C(F)(F)F)cc(C(F)(F)F)c2)c2ccc(C3=CCCCC3)cc2)cc1 [Example 268, 4-[3-(3,5-Bis-trifluoromethylphenyl)-1-(4-cyclohex-1-enylphenyl)ureidomethyl]-N-(2H-tetrazol-5-yl)benzamide]
19 nM	O=C(Nc1nn[nH]n1)c1ccc(CN(C(=O)Nc2ccc3c(c2)C(F)(F)OC(F)(F)O3)c2ccc(C3=CCCCC3)cc2)cc1 [Example 358, 4-[1-(4-Cyclohex-1-enylphenyl)-3-(2,2,4,4-tetrafluoro-4H-benzo[1,3]dioxin-6-yl)ureidomethyl]-N-(2H-tetrazol-5-yl)benzamide]
16 nM	CC(C)(C)c1ccc(N(Cc2ccc(C(=O)Nc3nn[nH]n3)cc2)C(=O)Nc2cc(Br)cc(C(F)(F)F)c2)cc1 [Example 263, 4-[3-(3-Bromo-5-trifluoromethylphenyl)-1-(4-tert-butylphenyl)ureidomethyl]-N-(2H-tetrazol-5-yl)benzamide]
16 nM	N#Cc1cc(NC(=O)N(Cc2ccc(C(=O)Nc3nn[nH]n3)cc2)c2ccc(C3CCCCC3)cc2)cc(C(F)(F)F)c1 [Example 359, 4-[3-(3-Cyano-5-trifluoromethylphenyl)-1-(4-cyclohexylphenyl)ureidomethyl]-N-(2H-tetrazol-5-yl)benzamide]
9 nM	O=C(Nc1nn[nH]n1)c1ccc(CN(C(=O)Nc2cc(C(F)(F)F)cc(C(F)(F)F)c2)c2ccc(C3CCCCC3)cc2)cc1 [Example 271, 4-[3-(3,5-Bis-trifluoromethylphenyl)-1-(4-cyclohexylphenyl)ureidomethyl]-N-(2H-tetrazol-5-yl)benzamide]
